Reference: patent US20090018134A1, “Compounds - 945” (AstraZeneca AB, priority 2007, published 2009)
pIC50: −log10 of the molar value. Read-outs that look alike come from different tables or passages of the source.

Target: T1, mTOR (Homo sapiens, UniProt P42345)
T1 construct: FLAG; made in house
Test: In Vitro mTOR Kinase Assay (Echo), Test (a)(ii)
Format: biochemical
Method in brief: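 Inhibition expressed as IC50 from an AlphaScreen read-out: phospho-T389 p70 S6K antibody plus streptavidin donor/protein A acceptor beads, left overnight in the dark. The kinase reaction ran 2 h at room temperature, then was stopped with EDTA. Enzyme: FLAG-purified mTOR 1362-2549 fragment from stable HEK293 cells.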

[1] = table of enzyme assay Test (a)(ii), read-out: Test (a)(ii) IC50

T1 sequence (P42345 1362-2549): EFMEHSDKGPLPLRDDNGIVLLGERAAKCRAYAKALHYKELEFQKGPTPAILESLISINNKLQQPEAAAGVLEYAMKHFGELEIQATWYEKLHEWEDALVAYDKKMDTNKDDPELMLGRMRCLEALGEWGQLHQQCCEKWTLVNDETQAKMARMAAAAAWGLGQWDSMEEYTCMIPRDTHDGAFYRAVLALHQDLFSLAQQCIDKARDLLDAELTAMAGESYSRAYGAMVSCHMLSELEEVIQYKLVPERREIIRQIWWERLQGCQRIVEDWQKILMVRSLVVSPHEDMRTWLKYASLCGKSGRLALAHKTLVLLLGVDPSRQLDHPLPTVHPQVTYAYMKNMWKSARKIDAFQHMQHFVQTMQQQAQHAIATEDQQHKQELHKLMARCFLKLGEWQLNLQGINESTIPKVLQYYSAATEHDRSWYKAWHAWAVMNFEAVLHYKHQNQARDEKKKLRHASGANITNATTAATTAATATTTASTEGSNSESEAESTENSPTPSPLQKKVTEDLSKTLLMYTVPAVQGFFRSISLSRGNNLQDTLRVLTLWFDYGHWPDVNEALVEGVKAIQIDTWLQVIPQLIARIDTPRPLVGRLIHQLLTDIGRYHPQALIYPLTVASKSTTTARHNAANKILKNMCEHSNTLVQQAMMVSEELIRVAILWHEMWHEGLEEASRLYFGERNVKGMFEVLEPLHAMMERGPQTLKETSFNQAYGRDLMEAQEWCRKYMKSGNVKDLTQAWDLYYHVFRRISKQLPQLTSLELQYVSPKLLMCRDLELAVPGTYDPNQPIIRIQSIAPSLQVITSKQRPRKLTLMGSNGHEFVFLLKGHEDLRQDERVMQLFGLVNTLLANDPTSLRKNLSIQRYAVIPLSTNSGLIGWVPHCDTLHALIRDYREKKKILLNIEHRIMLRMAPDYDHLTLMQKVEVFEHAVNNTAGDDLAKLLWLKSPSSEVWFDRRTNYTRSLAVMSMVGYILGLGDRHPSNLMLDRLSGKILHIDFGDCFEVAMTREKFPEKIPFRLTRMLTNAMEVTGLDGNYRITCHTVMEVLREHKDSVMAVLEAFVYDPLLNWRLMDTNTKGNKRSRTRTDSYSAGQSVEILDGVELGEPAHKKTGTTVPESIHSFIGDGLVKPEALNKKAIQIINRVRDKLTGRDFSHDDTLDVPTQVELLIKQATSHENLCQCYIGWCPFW

pIC50 [1]	Structure (SMILES)	pIC50
8.51	C[C@H]1COCCN1c1cc(C2(S(=O)(=O)c3ccccc3)CC2)nc(-c2ccc(NC(=O)Nc3cn(C)cn3)cc2)n1 [Example 36eb, 1-[4-[4-[1-(benzenesulfonyl)cyclopropyl]-6-[(3S)-3-methylmorpholin-4-yl]pyrimidin-2-yl]phenyl]-3-(1-methylimidazol-4-yl)urea]	
8.08	CCS(=O)(=O)C1(c2cc(N3CCOC[C@@H]3C)nc(-c3ccc(NC(=O)NCCF)cc3)n2)CC1 [Example 36ef, 1-[4-[4-(1-ethylsulfonylcyclopropyl)-6-[(3S)-3-methylmorpholin-4-yl]pyrimidin-2-yl]phenyl]-3-(2-fluorethyl)urea]	
8.06	CCS(=O)(=O)C1(c2cc(N3CCOC[C@@H]3C)nc(-c3ccc(NC(=O)NCC(F)F)cc3)n2)CC1 [Example 36eg, 3-(2,2-difluoroethyl)-1-[4-[4-(1-ethylsulfonylcyclopropyl)-6-[(3S)-3-methylmorpholin-4-yl]pyrimidin-2-yl]phenyl]urea]	
8.08	C[C@H]1COCCN1c1cc(C2(S(=O)(=O)C3CC3)CCC2)nc(-c2ccc(NC(=O)NCCC#N)cc2)n1 [Example 36g, 3-(2-cyanoethyl)-1-[4-[4-(1-cyclopropylsulfonylcyclobutyl)-6-[(3S)-3-methylmorpholin-4-yl]pyrimidin-2-yl]phenyl]urea]	
8.50	C[C@H]1COCCN1c1cc(C2(S(=O)(=O)C3CC3)CCC2)nc(-c2ccc(NC(=O)Nc3cnn(C)c3)cc2)n1 [Example 36h, 1-[4-[4-(1-cyclopropylsulfonylcyclobutyl)-6-[(3S)-3-methylmorpholin-4-yl]pyrimidin-2-yl]phenyl]-3-(1-methylpyrazol-4-yl)urea]	
7.29	C[C@H]1COCCN1c1cc(C2(S(=O)(=O)C3CC3)CCC2)nc(-c2ccc(NC(=O)NCc3ncc[nH]3)cc2)n1 [Example 36i, 1-[4-[4-(1-cyclopropylsulfonylcyclobutyl)-6-[(3S)-3-methylmorpholin-4-yl]pyrimidin-2-yl]phenyl]-3-(1H-imidazol-2-ylmethyl)urea]	
7.88	C[C@H]1COCCN1c1cc(C2(S(=O)(=O)C3CC3)CCCC2)nc(-c2ccc(NC(=O)NCCO)cc2)n1 [Example 36k, 1-[4-[4-(1-cyclopropylsulfonylcyclopentyl)-6-[(3S)-3-methylmorpholin-4-yl]pyrimidin-2-yl]phenyl]-3-(2-hydroxyethyl)urea]	
7.46	C[C@H]1COCCN1c1cc(C2(S(=O)(=O)C3CC3)CCCC2)nc(-c2ccc(NC(=O)NCCCO)cc2)n1 [Example 36m, 1-[4-[4-(1-cyclopropylsulfonylcyclopentyl)-6-[(3S)-3-methylmorpholin-4-yl]pyrimidin-2-yl]phenyl]-3-(3-hydroxypropyl)urea]	
7.61	Cc1csc(S(=O)(=O)C2(c3cc(N4CCOC[C@@H]4C)nc(-c4ccc(NC(=O)NCc5ncc[nH]5)cc4)n3)CC2)n1 [Example 36n, 3-(1H-imidazol-2-ylmethyl)-1-[4-[4-[(3S)-3-methylmorpholin-4-yl]-6-[1-[(4-methyl-1,3-thiazol-2-yl)sulfonyl]cyclopropyl]pyrimidin-2-yl]phenyl]urea]	
7.05	Cc1csc(S(=O)(=O)C2(c3cc(N4CCOC[C@@H]4C)nc(-c4ccc(NC(=O)NC5(CO)CC5)cc4)n3)CC2)n1 [Example 36q, 3-[1-(hydroxymethyl)cyclopropyl]-1-[4-[4-[(3S)-3-methylmorpholin-4-yl]-6-[1-[(4-methyl-1,3-thiazol-2-yl)sulfonyl]cyclopropyl]pyrimidin-2-yl]phenyl]urea]	
8.13	CS(=O)(=O)C1(c2cc(N3CCOCC3)nc(-c3ccc(NC(=O)NCCC#N)cc3)n2)CC1 [Example 36r, 3-(2-cyanoethyl)-1-[4-[4-(1-methylsulfonylcyclopropyl)-6-morpholin-4-ylpyrimidin-2-yl]phenyl]urea]	
6.96	CCS(=O)(=O)C1(c2cc(N3CCOC[C@@H]3C)nc(-c3ccc(NC(=O)NCc4ncc[nH]4)cc3)n2)CC1 [Example 36w, 1-[4-[4-(1-ethylsulfonylcyclopropyl)-6-[(3S)-3-methylmorpholin-4-yl]pyrimidin-2-yl]phenyl]-3-(1H-imidazol-2-ylmethyl)urea]	
6.74	C[C@H]1COCCN1c1cc(C2(S(=O)(=O)c3ccc(F)cc3)CC2)nc(-c2ccc(NC(=O)NC3(CO)CC3)cc2)n1 [Example 36x, 1-[4-[4-[1-(4-fluorophenyl)sulfonylcyclopropyl]-6-[(3S)-3-methylmorpholin-4-yl]pyrimidin-2-yl]phenyl]-3-[1-(hydroxymethyl)cyclopropyl]urea]	
8.88	C[C@H]1COCCN1c1cc(C2(S(=O)(=O)c3ccc(F)cc3)CC2)nc(-c2ccc(NC(=O)NCCC#N)cc2)n1 [Example 36y, 3-(2-cyanoethyl)-1-[4-[4-[1-(4-fluorophenyl)sulfonylcyclopropyl]-6-[(3S)-3-methylmorpholin-4-yl]pyrimidin-2-yl]phenyl]urea]	
7.59	CNC(=S)Nc1ccc(-c2nc(N3CCOC[C@@H]3C)cc(C3(S(=O)(=O)C4CC4)CC3)n2)cc1 [Example 37a, 1-[4-[4-(1-cyclopropylsulfonylcyclopropyl)-6-[(3S)-3-methylmorpholin-4-yl]pyrimidin-2-yl]phenyl]-3-methylthiourea]	

The next lines start with the molecule.

Structure (SMILES)	pIC50 [1]	pIC50
C[C@@H](CO)NC(=O)Nc1ccc(-c2nc(N3CCOC[C@@H]3C)cc(C3(S(=O)(=O)c4ccccc4)CC3)n2)cc1 [Example 36ec, 1-[4-[4-[1-(benzenesulfonyl)cyclopropyl]-6-[(3S)-3-methylmorpholin-4-yl]pyrimidin-2-yl]phenyl]-3-[(2S)-1-hydroxypropan-2-yl]urea]	8.49	
C[C@H](CO)NC(=O)Nc1ccc(-c2nc(N3CCOC[C@@H]3C)cc(C3(S(=O)(=O)c4ccccc4)CC3)n2)cc1 [Example 36ed, 1-[4-[4-[1-(benzenesulfonyl)cyclopropyl]-6-[(3S)-3-methylmorpholin-4-yl]pyrimidin-2-yl]phenyl]-3-[(2R)-1-hydroxypropan-2-yl]urea]	8.15	
C[C@H]1COCCN1c1cc(C2(S(=O)(=O)c3ccccc3)CC2)nc(-c2ccc(NC(=O)NCCCl)cc2)n1 [Example 36ee, 1-[4-[4-[1-(benzenesulfonyl)cyclopropyl]-6-[(3S)-3-methylmorpholin-4-yl]pyrimidin-2-yl]phenyl]-3-(2-chloroethyl)urea]		8.02
C[C@H]1COCCN1c1cc(C2(S(=O)(=O)C3CC3)CCC2)nc(-c2ccc(NC(=O)NCCO)cc2)n1 [Example 36f, 1-[4-[4-(1-cyclopropylsulfonylcyclobutyl)-6-[(3S)-3-methylmorpholin-4-yl]pyrimidin-2-yl]phenyl]-3-(2-hydroxyethyl)urea]	8.56	
C[C@H]1COCCN1c1cc(C2(S(=O)(=O)C3CC3)CCCC2)nc(-c2ccc(NC(=O)NC3CC3)cc2)n1 [Example 36j, 3-cyclopropyl-1-[4-[4-(1-cyclopropylsulfonylcyclopentyl)-6-[(3S)-3-methylmorpholin-4-yl]pyrimidin-2-yl]phenyl]urea]	7.74	
C[C@H]1COCCN1c1cc(C2(S(=O)(=O)C3CC3)CCCC2)nc(-c2ccc(NC(=O)NCCC#N)cc2)n1 [Example 36l, 3-(2-cyanoethyl)-1-[4-[4-(1-cyclopropylsulfonylcyclopentyl)-6-[(3S)-3-methylmorpholin-4-yl]pyrimidin-2-yl]phenyl]urea]	7.37	
Cc1csc(S(=O)(=O)C2(c3cc(N4CCOC[C@@H]4C)nc(-c4ccc(NC(=O)NCCC#N)cc4)n3)CC2)n1 [Example 36o, 3-(2-cyanoethyl)-1-[4-[4-[(3S)-3-methylmorpholin-4-yl]-6-[1-[(4-methyl-1,3-thiazol-2-yl)sulfonyl]cyclopropyl]pyrimidin-2-yl]phenyl]urea]	8.45	
Cc1csc(S(=O)(=O)C2(c3cc(N4CCOC[C@@H]4C)nc(-c4ccc(NC(=O)Nc5ncns5)cc4)n3)CC2)n1 [Example 36p, 1-[4-[4-[(3S)-3-methylmorpholin-4-yl]-6-[1-[(4-methyl-1,3-thiazol-2-yl)sulfonyl]cyclopropyl]pyrimidin-2-yl]phenyl]-3-(1,2,4-thiadiazol-5-yl)urea]	8.79	
CS(=O)(=O)C1(c2cc(N3CCOCC3)nc(-c3ccc(NC(=O)Nc4ncns4)cc3)n2)CC1 [Example 36s, 1-[4-[4-(1-methylsulfonylcyclopropyl)-6-morpholin-4-ylpyrimidin-2-yl]phenyl]-3-(1,2,4-thiadiazol-5-yl)urea]	8.32	
CS(=O)(=O)C1(c2cc(N3CCOCC3)nc(-c3ccc(NC(=O)NCc4ncc[nH]4)cc3)n2)CC1 [Example 36t, 3-(1H-imidazol-2-ylmethyl)-1-[4-[4-(1-methylsulfonylcyclopropyl)-6-morpholin-4-ylpyrimidin-2-yl]phenyl]urea]	6.71	
CCS(=O)(=O)C1(c2cc(N3CCOC[C@@H]3C)nc(-c3ccc(NC(=O)NCCC#N)cc3)n2)CC1 [Example 36u, 3-(2-cyanoethyl)-1-[4-[4-(1-ethylsulfonylcyclopropyl)-6-[(3S)-3-methylmorpholin-4-yl]pyrimidin-2-yl]phenyl]urea]	8.04	
CCS(=O)(=O)C1(c2cc(N3CCOC[C@@H]3C)nc(-c3ccc(NC(=O)NC4(CO)CC4)cc3)n2)CC1 [Example 36v, 1-[4-[4-(1-ethylsulfonylcyclopropyl)-6-[(3S)-3-methylmorpholin-4-yl]pyrimidin-2-yl]phenyl]-3-[1-(hydroymethyl)cyclopropyl]urea]	6.33	
C[C@H]1COCCN1c1cc(C2(S(=O)(=O)c3ccc(F)cc3)CC2)nc(-c2ccc(NC(=O)Nc3ncns3)cc2)n1 [Example 36z, 1-[4-[4-[1-(4-fluorophenyl)sulfonylcyclopropyl]-6-[(3S)-3-methylmorpholin-4-yl]pyrimidin-2-yl]phenyl]-3-(1,2,4-thiadiazol-5-yl)urea]	8.68	
C[C@H]1COCCN1c1cc(C2(S(=O)(=O)c3ccccc3)CC2)nc(-c2ccc(NC(=S)NCCO)cc2)n1 [Example 37aa, 1-[4-[4-[1-(benzenesulfonyl)cyclopropyl]-6-[(3S)-3-methylmorpholin-4-yl]pyrimidin-2-yl]phenyl]-3-(2-hydroxyethyl)thiourea]	8.25	
